Measured values reported in patent US20100009017A1, “Anticancer Methods Using Extracts of Anemarrhena asphodeloides Bunge” (BIONOVO, INC., priority 2008, published 2010).

Columns and labels:
Type in all cases: cell-based
cancer cells = assay: Induction of apoptosis in vitro
BT474 cells [1] = assay: Cell death in BT474 cells (FIG. 5, FIG. 15); settings: for induction of cell death: BT474, 24 hr, BN108 0.5 mg/mL, Timosaponin A3 4 μg/mL, Timosaponin B2 50 μg/mL, lamarinase-treated Timosaponin B2 4 μg/mL
Experimental: FIG. 5. Effect of Timosaponins A3 and B2 on viability of breast cancer (BT474) and normal epithelial cells (MCF10A). Cells were treated with BN108 at 0.5 mg/ml, Timosaponin A3 at 4 μg/ml, or Timosaponin B2 at 50 μg/ml, inactivated lamarinase alone or lamarinase-treated B2 at 4 μg/ml for 24 hours.
FIG. 15. Conversion of Timosaponin B2 to Timosaponin A3 by lamarinase was confirmed by time of flight mass spectrometry (TOF MS). Disappearance of Timosaponin B2 and appearance of Timosaponin A3 results in an increase in cell death from 16% in the presence of inactivated lamarinase and Timosaponin B2 to 53% in the presence of activated lamarinase and Timosaponin B2.
The effect of Timosaponins A3 and B2 on the viability of breast cancer cells and normal epithelial cells was tested by treating cells with either 0.5 mg/mL BN108, 4 μg/mL Timosaponin A3, 50 μg/mL Timosaponin B2, inactivated lamarinase alone or lamarinase-treated Timosaponin B2 (4 μg/mL) for 24 hr. […] The difference in activity between Timosaponin A3 and lamarinase treated Timosaponin B2 is, on a molar basis, probably negligible, given that the quotient of the molecular weights of Timosaponin B2 (920 Da) and Timosaponin A3 (740 Da) is roughly equivalent to the ratio of the % dead cells in the Timosaponin A3 and the lamarinase-treated Timosaponin B2. Thus, it can be inferred that nearly all the Timosaponin B2 is converted into Timosaponin A3, and is active to induced apoptosis, in the presence of lamarinase.

REDD1 = REDD1 induction in Du145 cells (FIG. 6); settings: Du145 prostate cancer cells; BN108 0.5 mg/mL, Timosaponin A3 7.5 μM
Experimental: FIG. 6. Pro-apoptotic gene REDD1 is induced in prostate cancer cell line Du145 by treatment with BN108 (0.5 mg/ml) and Timosaponin A3 (7.5 μM). Both BN108 and Timosaponin A3 induce the pro-apoptotic gene REDD1 in prostate cancer cells.

non-cancerous cells = assay: Induction of apoptosis in vitro
SREBP2 = SREBP2 activation in BT474 cells (FIG. 4B, FIG. 7); settings: Timosaponin A3 5 μM, BN108 0.5 mg/mL
Experimental: FIG. 4. […] B. SREBP2 is activated by BN108 in both cell lines. Activated AKT was detected using antibody to phosphoserine 473 (Phospho-AKT) that is phosphorylated only in active kinase.
(§1) FIG. 7. Purified Timosaponin A3 and BN108 extract have similar effects on phosphorylation of eIF2a and on activation of SREBP2 as well as expression on SREBP2 target gene IDI1. BT474 cells were treated with TspA3 (5 μM) or BN108 (0.5 mg/ml).
In FIG. 4B, it can be seen that SREBP2 is activeated by BN108 in both the cancer cells (BT474) and the non-cancerous cells (MCF10A).
Both BN108 and Timosaponin A3 induce the pro-apoptotic gene REDD1 in prostate cancer cells.

IDI1 = assay: Expression of SREBP2 target gene IDI1 in BT474 cells (FIG. 7); settings: Timosaponin A3 5 μM, BN108 0.5 mg/mL
Experimental: as §1, with “mg/ml). Both BN108 and Timosaponin A3 induce the pro-apoptotic gene REDD1 in prostate cancer cells.” for “mg/ml).”

BT474 cells [2] = assay: FACScan propidium iodide / Annexin V viability and apoptosis (FIG. 9, table); settings: for cells surviving: BT474, 24 hours; for % Difference from control: control = DMSO
Experimental: FIG. 9. […] BT474 cells were treated for 24 hours, and percent of live cells was analyzed on FACScan based on permeability of dead cells for propidium iodide and binding of Annexin V.
The cytotoxic effects of BN108 and Timosaponin A3 are attenuated by cholesterol (CHL) and the caspase 4 inhibitor LEVD. […] Treatment of BT474 cells with […] cholesterol protected the cells from the effects of Timosaponin A3 and BN108, with about 80% of the cells surviving 24 hours in the presence of cholesterol (CHL).

eIF2a = assay: Phosphorylation of eIF2a in BT474 cells (FIG. 7); settings: Timosaponin A3 5 μM, BN108 0.5 mg/mL
Experimental: as §1, with “mg/ml). Both BN108 and Timosaponin A3 induce the pro-apoptotic gene REDD1 in prostate cancer cells.” for “mg/ml).”

MM23 breast cancer cells = assay: Cholesterol content of cell extracts (FIG. 8); settings: cancerous (MM23) breast cells
Experimental: (§2) FIG. 8. Purified Timosaponin A3 and BN108 extract have similar effects on cholesterol synthesis on breast cancer cells MM23 and normal MCF10A cells. Cells were treated with either BN108 or TspA3 for indicated times, and cell extracts were analyzed for cholesterol content, which was normalized to the protein content.
(§3) BN108 and Timosaponin A3 had similar effects on cholesterol (CHL) synthesis in cancerous and normal cells.

MCF10A cells = assay: Cholesterol content of cell extracts (FIG. 8); settings: normal (MCF10A) breast cells, through the first 8 hours after treatment
Experimental: as §2, §3

Compound | induction of apoptosis (cancer cells) | induction of cell death (BT474 cells [1]) | REDD1 gene induction (REDD1) | induction of apoptosis (non-cancerous cells) | expression of SREBP2 (SREBP2) | expression of IDI1 (IDI1) | % Total apoptotic (BT474 cells [2]) [%] | % early apoptotic (BT474 cells [2]) [%] | % late apoptotic (BT474 cells [2]) [%] | cells surviving (BT474 cells [2]) [%] | cells surviving (BT474 cells [2]; with 250 mM cholesterol (CHL)) | % Difference from control (BT474 cells [2]) [%] | phosphorylation of eIF2a (eIF2a) | cholesterol synthesis (MM23 breast cancer cells) | cholesterol synthesis (MCF10A cells) | cell death (BT474 cells [1]; in the presence of inactivated lamarinase (FIG. 15)) [%]
CC1CCC2(OC1)OC1CC3C4CCC5CC(OC6OC(CO)C(O)C(O)C6OC6OC(CO)C(O)C(O)C6O)CC[C@]5(C)C4CC[C@]3(C)[C@H]1[C@@H]2C (stereo partly shown) [Timosaponin A3] | induces of apoptosis | induced cell death | induced | does not induce apoptosis | increase expression of SREBP2 | increase expression of IDI1 | 68 | 35 | 33 | 40 | about 80% | 57 | increase phosphorylation of elF2a | increase cholesterol synthesis slightly | reduce cholesterol synthesis | –
C[C@@H](CCC1(O)O[C@H]2C[C@H]3[C@@H]4CC[C@@H]5C[C@@H](O[C@@H]6O[C@H](CO)[C@H](O)[C@H](O)[C@H]6O[C@@H]6O[C@H](CO)[C@@H](O)[C@H](O)[C@H]6O)CC[C@]5(C)[C@H]4CC[C@]3(C)[C@H]2[C@@H]1C)CO[C@@H]1O[C@H](CO)[C@@H](O)[C@H](O)[C@H]1O (stereo partly shown) [Timosaponin B2] | does not induce apoptosis | did not induce cell death | – | – | – | – | 12 | 7 | 5 | – | – | 1 | – | – | – | 16
